We go through two compounds from ChEMBL document CHEMBL4418489, “FTO inhibitors” (2018).

The species entered for one experiment is Homo sapiens. The experiment in a line: Selectivity index, ratio of IC50 for COMT (unknown origin) (test compound)/IC50 for FTO (unknown origin) (test compound) to IC50 for COMT (entacapone)/IC50 for FTO (entacapone).
The target in experiment [1] is Alpha-ketoglutarate-dependent dioxygenase FTO (Homo sapiens, UniProt Q9C0B1). The experiment in a line: Inhibition of FTO (unknown origin) assessed as reduction in demethylation by measuring N6-mA and A level incubated for 2 hrs by HPLC-MS/MS analysis.
Sequence of Alpha-ketoglutarate-dependent dioxygenase FTO (Q9C0B1 whole entry): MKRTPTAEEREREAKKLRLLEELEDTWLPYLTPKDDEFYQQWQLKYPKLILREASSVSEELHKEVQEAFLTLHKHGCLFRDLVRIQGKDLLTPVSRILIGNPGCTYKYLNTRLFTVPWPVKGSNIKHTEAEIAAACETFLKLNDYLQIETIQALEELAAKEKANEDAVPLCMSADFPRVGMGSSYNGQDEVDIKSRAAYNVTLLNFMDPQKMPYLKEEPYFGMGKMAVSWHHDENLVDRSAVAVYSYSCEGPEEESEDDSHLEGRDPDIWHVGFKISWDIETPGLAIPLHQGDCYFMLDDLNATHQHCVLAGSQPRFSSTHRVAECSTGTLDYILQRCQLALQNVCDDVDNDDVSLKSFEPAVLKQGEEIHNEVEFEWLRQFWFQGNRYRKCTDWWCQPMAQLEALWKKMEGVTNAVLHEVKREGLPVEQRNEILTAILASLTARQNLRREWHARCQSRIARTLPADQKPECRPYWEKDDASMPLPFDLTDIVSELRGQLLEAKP

`N#C/C(=C\c1cc(O)c(O)c([N+](=O)[O-])c1)C(=O)N1CCC1`: the Ratio IC50 in the experiment filed under Homo sapiens is 1.65.
On to `CCN(CC)C(=O)/C(C#N)=C/c1cc(O)c(O)c([N+](=O)[O-])c1` [ENTACAPONE], for which the concentration for half-maximal inhibition (IC50) in experiment [1] was 3 µM.

In general, IC50 refers to the concentration that gives 50% inhibition.
